Reference: the supplement of paper PMC10307832

How the values were obtained:
Experiment in all cases: relative viability (nuclei count vs DMSO), 5 days (fraction); higher = more cells survive
[1] = compound: C1COCCN1C2=NC(=NC3=C2OC4=C3C=CC=N4)C5=CC(=CC=C5)NC(=O)C6=CN=C(C=C6)N + Cc1nc(NC(=O)N2CCC[C@H]2C(N)=O)sc1-c1ccnc(C(C)(C)C(F)(F)F)c1 [Alpelisib] (partner 2 µM)
Outline: (§1)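 A single step with final 0.05% Triton X-100, 1% formaldehyde and 1 ug/ml Hoechst fixed the cells and stained nuclei 5 days after treatment. Lung cancer cell lines in 1536-well plates had been treated by pin tool the day after seeding with one drug alone or a fixed anchor-drug dose plus five library-drug doses (not always all listed) in √10 steps, and nuclei were counted on 4× images. Relative viability is the ratio of nuclei in treated wells to nuclei in vehicle wells, taken as the median of duplicate plates.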

SGI-1776 + Trametinib = compound: CN1CCC(CNc2ccc3ncc(-c4cccc(OC(F)(F)F)c4)n3n2)CC1 [SGI-1776] + CC(=O)Nc1cccc(-n2c(=O)n(C3CC3)c(=O)c3c(Nc4ccc(I)cc4F)n(C)c(=O)c(C)c32)c1 [Trametinib] (partner 0.02 µM)
Outline: as §1

SGI-1776 + Vorinostat = compound: CN1CCC(CNc2ccc3ncc(-c4cccc(OC(F)(F)F)c4)n3n2)CC1 [SGI-1776] + O=C(CCCCCCC(=O)Nc1ccccc1)NO [Vorinostat] (partner 1 µM)
Outline: as §1

Entinostat + Dasatinib = compound: Nc1ccccc1NC(=O)c1ccc(CNC(=O)OCc2cccnc2)cc1 [Entinostat] + Cc1nc(Nc2ncc(C(=O)Nc3c(C)cccc3Cl)s2)cc(N2CCN(CCO)CC2)n1 [Dasatinib] (partner 0.075 µM)
Outline: as §1

Cell Line	relative viability ([1]; first compound 0.02 µM)	relative viability ([1]; first compound 0.06325 µM)	relative viability ([1]; first compound 0.2 µM)	relative viability ([1]; first compound 0.6325 µM)	relative viability ([1]; first compound 2 µM)	relative viability (SGI-1776 + Trametinib; first compound 0.08 µM)	relative viability (SGI-1776 + Trametinib; first compound 0.8 µM)	relative viability (SGI-1776 + Trametinib; first compound 2.53 µM)	relative viability (SGI-1776 + Trametinib; first compound 8 µM)	relative viability (SGI-1776 + Vorinostat; first compound 0.08 µM)	relative viability (SGI-1776 + Vorinostat; first compound 0.8 µM)	relative viability (SGI-1776 + Vorinostat; first compound 2.53 µM)	relative viability (SGI-1776 + Vorinostat; first compound 8 µM)	relative viability (Entinostat + Dasatinib; first compound 0.02 µM)	relative viability (Entinostat + Dasatinib; first compound 0.06325 µM)	relative viability (Entinostat + Dasatinib; first compound 0.2 µM)	relative viability (Entinostat + Dasatinib; first compound 0.6325 µM)	relative viability (Entinostat + Dasatinib; first compound 2 µM)
NCI-H23	0.661	0.822	0.66	0.772	0.491	0.328	0.29	0.372	0.304	0.639	0.758	0.602	0.533	0.781	0.971	0.961	0.741	0.378
SK-LU-1	0.956	1.04	0.879	0.749	0.473	0.557	0.541	0.533	0.408	0.892	0.803	0.697	0.648	0.186	0.237	0.186	0.199	0.147
NCI-H727	0.472	0.418	0.51	0.693	0.341	0.454	0.38	0.391	0.372	1.26	1.11	1.39	0.983	0.475	0.419	0.412	0.219	0.273
HCC-366	0.575	0.471	0.314	0.287	0.189	0.344	0.368	0.289	0.19	0.462	0.418	0.392	0.266	0.679	0.663	0.527	0.512	0.196
SW 1573	0.659	0.912	0.734	0.699	0.576	0.525	0.444	0.463	0.305	1.12	0.461	0.607	0.312	0.532	0.518	0.711	0.627	0.454
A-427	1.13	1.11	1.04	0.907	0.798	0.749	0.726	0.722	0.542	0.861	0.9	0.882	0.815	0.707	0.679	0.614	0.525	0.442
NCI-H441	0.832	0.93	0.751	0.715	0.433	0.497	0.51	0.5	0.294	0.929	0.761	0.867	0.658	0.705	0.602	0.557	0.259	0.124
LK-2	1.07	1.15	1.2	1.06	0.856	0.778	0.69	0.63	0.708	0.35	0.347	0.23	0.321	0.292	0.389	0.388	0.286	0.301
NCI-H2085	0.956	0.988	0.926	0.909	0.596	0.665	0.612	0.511	0.453	0.841	0.865	0.763	0.753	0.226	0.243	0.228	0.248	0.244
NCI-H647	1.21	1.33	0.996	1.21	0.356	0.621	0.441	0.56	0.323	0.539	0.61	0.604	0.322	0.197	0.133	0.144	0.0844	0.064
SK-MES-1	0.949	1.07	0.984	0.971	0.724	0.546	0.521	0.494	0.324	1.23	1.04	1.11	0.734	0.403	0.498	0.541	0.338	0.175
NCI-H1793	0.812	0.842	0.655	0.852	0.59	0.418	0.518	0.589	0.444	0.843	1.15	0.768	0.638	0.422	0.404	0.376	0.228	0.192
LC-2-ad	0.824	0.83	0.893	0.782	0.531	0.885	0.926	0.931	0.822	0.676	0.709	0.663	0.66	0.516	0.533	0.428	0.222	0.165
NCI-H3122	0.808	0.798	0.681	0.772	0.676	0.238	0.19	0.274	0.244	1.15	0.917	1.07	1.07	1.03	0.98	0.812	0.629	0.0849
LCLC-97TM1		0.265	0.208	0.313	0.249	0.216	0.205	0.195	0.199	0.777	0.842	0.79	0.727	0.882	0.646	0.748	0.782	0.615
NCI-H520	0.914	0.923	0.971	1.02	0.406	0.773	0.816	0.686	0.544	0.711	0.779	0.797	0.561	0.248	0.335	0.238	0.325	0.286
NCI-H358	0.928	0.925	0.783	0.943	0.486	0.14	0.146	0.128	0.123	0.686	1.06	0.634	0.625	0.181	0.136	0.158	0.115	0.109
NCI-H1755	1.07	1	0.965	0.863	0.397	0.802	0.741	0.762	0.651	0.809	0.87	0.733	0.6	0.431	0.503	0.445	0.28	0.218
